Source: patent US20030215878A1, “Novel G protein-coupled purinergic receptor, GAVE17” (priority 2002, published 2003)

Columns and labels:
GAVE17 [1] = target: T1, GAVE17 (Homo sapiens, UniProt Q9BPV8); assay: Agonist assay utilizing FLIPR, NIH 3T3 cell line transfected with hGAVE17 (Ca2+ fluorescence); type: cell-based; parameters: host or cells: Gα16-coupled NIH 3T3; conditions: NIH313 cell line transfected with PEAK8 expression vector comprising SEQ ID NO:1; FIGS. 3a-d
T1 sequence (Q9BPV8 1-333 isoform Q9BPV8-2): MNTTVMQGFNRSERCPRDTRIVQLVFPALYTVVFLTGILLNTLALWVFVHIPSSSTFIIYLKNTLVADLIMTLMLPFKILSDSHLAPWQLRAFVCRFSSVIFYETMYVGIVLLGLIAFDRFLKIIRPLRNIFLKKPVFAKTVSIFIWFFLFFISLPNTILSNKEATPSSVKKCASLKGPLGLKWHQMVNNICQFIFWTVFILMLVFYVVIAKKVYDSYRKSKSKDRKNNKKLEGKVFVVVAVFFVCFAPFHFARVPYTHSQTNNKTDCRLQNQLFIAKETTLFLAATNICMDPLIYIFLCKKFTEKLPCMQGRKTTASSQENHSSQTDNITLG
Text: To screen for agonists of human GAVE17, hGAVE17 is coupled artificially to a Gq mechanism. Activation of the Gq mechanism stimulates the release of Ca^2+ from sarcoplasmic reticulum vesicles within the cell. The Ca^2+ is released into the cytoplasm where it can be detected using Ca^2+ chelating dyes. A Fluorometric Imaging Plate Reader or FLIPR® apparatus (Molecular Devices) is used to monitor any resulting changes in fluorescence. The activity of an agonist is reflected by an increase in fluorescence.
In a particular example, NIH 3T3 cells expressing hGAVE17 are pre-engineered to express an indiscriminate form of Gq protein (Gα16). To prepare such cells, Gα16-coupled NIH 3T3 cells are obtained commercially (Molecular Devices LIVEWARE™ cells, Catalog No. RD-HGA16) and the protocol in Example 2 followed to facilitate expression of hGAVE17 in those cells.
The cells are maintained in log phase of growth at 37° C. and 5% CO2 in F12 Ham's media (Gibco/BRL, Catalog No. 11765-054) containing 10% fetal bovine serum, 100 lU/ml penicillin (Gibco/BRL, Catalog No. 15140-148), 100 μg/ml streptomycin (Catalog No. 15140-148, Gibco/BRL), 400 μg/ml genetecin (G418) (Gibco/BRL, Catalog No. 10131-035) and 200 μg/ml zeocin (Invitrogen, Catalog No. R250-05). One day prior to an assay, 12,500 cells/well of the NIH 3T3 cells are plated onto 384-well clear-bottomed assay plates with a well volume of 50 μl (Greiner/Marsh, Catalog No. N58102) using a 96/384 Multidrop device (Labsystems, Type 832). The cells are incubated at 37° C. in a humidified 5% CO2 incubator (Forma Scientific CO2 water-jacketed incubator Model 3110).
The following stock solutions are prepared: a 1 M stock solution of Hepes (pH 7.5) (Gibco/BRL, Catalog No. 15630-080); a 250 mM stock solution of probenicid (Sigma, Catalog No. P8761) made in 1 N NaOH; and a 1 mM stock solution of Fluo 4-AM Dye (Molecular Probes, Catalog No. F1 4202) made in DMSO (Sigma D2650). Reaction buffer is prepared with 1000 ml Hank's balanced salt solution (Fisher/Mediatech, Catalog No. MT21023), 20 ml of the 1 M Hepes stock solution and 10 ml of the 250 mM probenicid stock solution. […]
A compound library containing possible agonists such as various purine derivatives or purine mimetics is tested at a concentration of 10 μM in physiological salt buffer. Changes in fluorescence are measured for 10 seconds prior to compound addition. After the addition of the compound, fluorescence is measured every second for the first minute followed by exposures taken every six seconds for a total experimental analysis time of three minutes. […]

GAVE17 [2] = target: T1, GAVE17; assay: Nucleotide ligand activation of and affinity for GAVE17 in transformed NIH 3T3 cells; type: cell-based; parameters: expressed in transfected cells; host or cells: NIH 3T3; conditions: for Kd: transformed NIH 3T3 cells

Row | agonist activity (FLIPR units vs log molar concentration) (GAVE17 [1]) | activation of GAVE17 (GAVE17 [2]) | Kd (GAVE17 [2]) | SMILES
1 | agonist activity | activate | 26 µM | Nc1ncnc2c1ncn2[C@@H]1O[C@H](COP(=O)(O)OP(=O)(O)O)[C@@H](O)[C@H]1O [ADP]
2 |  | activate | 65 µM | Nc1nc2c(ncn2[C@@H]2O[C@H](COP(=O)(O)OP(=O)(O)O)[C@@H](O)[C@H]2O)c(=O)[nH]1 [GDP]
3 | agonist activity | activate | 10 µM | O=c1ccn([C@@H]2O[C@H](COP(=O)(O)OP(=O)(O)O)[C@@H](O)[C@H]2O)c(=O)[nH]1 [UDP]
4 | agonist activity | activate | 6.9 µM | O=c1ccn([C@@H]2O[C@H](COP(=O)(O)OP(=O)(O)OP(=O)(O)O)[C@@H](O)[C@H]2O)c(=O)[nH]1 [UTP]

Row | SMILES | agonist activity (FLIPR units vs log molar concentration) (GAVE17 [1]) | activation of GAVE17 (GAVE17 [2]) | Kd (GAVE17 [2])
5 | Nc1ncnc2c1ncn2[C@@H]1O[C@H](COP(=O)(O)OP(=O)(O)OP(=O)(O)O)[C@@H](O)[C@H]1O [ATP] | agonist activity | activate | 0.8 µM
